Data reported in ChEMBL document CHEMBL5303573, “Mapping human microbiome drug metabolism by gut bacteria and their genes” (Nature, 2019).

Tests used:
[1] = The drug is tested on Bifidobacterium longum subsp. Infantis strain: CCUG52486 for biotransformation. The drug concentrations were measured before and after a 12-h incubation by liquid-chromatography-coupled mass spectrometry (LC–MS); details: 2 µM
[2] = The drug is tested on Eggerthella lenta strain: ATCC25559 for biotransformation. The drug concentrations were measured before and after a 12-h incubation by liquid-chromatography-coupled mass spectrometry (LC–MS); details: 2 µM
[3] = The drug is tested on Bacteroides pectinophilus strain: ATCC43243 for biotransformation. The drug concentrations were measured before and after a 12-h incubation by liquid-chromatography-coupled mass spectrometry (LC–MS); details: 2 µM
Lipoprotein = target: T1, Lipoprotein (Bacteroides thetaiotaomicron, UniProt Q8A343); test: The drug is tested on Bacteroides thetaiotaomicron strain: VPI-5482 for biotransformation. The drug concentrations were measured before and after a 12-h incubation by liquid-chromatography-coupled mass spectrometry (LC–MS); format: ADME; design: dose 2 uM; details: 2 µM
T1 sequence (Q8A343 whole entry): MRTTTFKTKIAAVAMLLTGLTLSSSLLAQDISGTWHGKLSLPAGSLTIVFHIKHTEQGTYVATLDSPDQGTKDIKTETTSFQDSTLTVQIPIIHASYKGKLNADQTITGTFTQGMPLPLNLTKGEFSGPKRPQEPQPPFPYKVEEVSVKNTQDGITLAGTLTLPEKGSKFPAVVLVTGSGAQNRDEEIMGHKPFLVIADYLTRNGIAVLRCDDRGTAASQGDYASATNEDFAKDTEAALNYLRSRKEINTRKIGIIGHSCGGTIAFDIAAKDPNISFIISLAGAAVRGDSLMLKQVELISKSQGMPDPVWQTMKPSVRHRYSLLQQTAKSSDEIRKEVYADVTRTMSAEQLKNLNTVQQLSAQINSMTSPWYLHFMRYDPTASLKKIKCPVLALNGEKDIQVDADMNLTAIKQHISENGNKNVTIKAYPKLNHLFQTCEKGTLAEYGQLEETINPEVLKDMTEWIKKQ

[4] = target: T2, Acyltransferase 3 domain-containing protein (Phocaeicola dorei, UniProt B6W2J3); test: (§1) The drug is tested on Bacteroides dorei strain: DSM17855 for biotransformation. The drug concentrations were measured before and after a 12-h incubation by liquid-chromatography-coupled mass spectrometry (LC–MS); format: ADME; design: dose 2 uM; details: 2 µM
T2 sequence (B6W2J3 whole entry): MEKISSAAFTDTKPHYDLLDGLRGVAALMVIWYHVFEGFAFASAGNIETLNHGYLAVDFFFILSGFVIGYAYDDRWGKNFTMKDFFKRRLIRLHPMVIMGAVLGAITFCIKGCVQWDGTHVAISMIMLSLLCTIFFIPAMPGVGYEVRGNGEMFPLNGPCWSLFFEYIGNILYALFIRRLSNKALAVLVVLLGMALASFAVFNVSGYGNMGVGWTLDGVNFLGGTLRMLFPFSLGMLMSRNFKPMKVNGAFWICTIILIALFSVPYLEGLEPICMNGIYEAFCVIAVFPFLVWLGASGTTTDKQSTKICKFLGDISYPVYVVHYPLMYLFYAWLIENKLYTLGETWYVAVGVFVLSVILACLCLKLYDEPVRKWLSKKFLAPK

Esterase = target: T3, Esterase (Phocaeicola dorei, UniProt B6W2J6); test: as §1; format: ADME; design: dose 2 uM; details: 2 µM
T3 sequence (B6W2J6 whole entry): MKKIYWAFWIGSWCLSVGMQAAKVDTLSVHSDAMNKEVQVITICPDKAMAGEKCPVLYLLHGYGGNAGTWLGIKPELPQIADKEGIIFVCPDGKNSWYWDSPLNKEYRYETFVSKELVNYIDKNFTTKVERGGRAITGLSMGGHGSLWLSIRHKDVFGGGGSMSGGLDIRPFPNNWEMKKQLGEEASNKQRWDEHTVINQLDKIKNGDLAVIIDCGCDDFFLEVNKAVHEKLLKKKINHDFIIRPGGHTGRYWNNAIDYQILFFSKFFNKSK

[5] = target: T4, Nitroreductase domain-containing protein (Phocaeicola dorei, UniProt B6VU18); test: as §1; format: ADME; design: dose 2 uM; details: 2 µM
T4 sequence (B6VU18 whole entry): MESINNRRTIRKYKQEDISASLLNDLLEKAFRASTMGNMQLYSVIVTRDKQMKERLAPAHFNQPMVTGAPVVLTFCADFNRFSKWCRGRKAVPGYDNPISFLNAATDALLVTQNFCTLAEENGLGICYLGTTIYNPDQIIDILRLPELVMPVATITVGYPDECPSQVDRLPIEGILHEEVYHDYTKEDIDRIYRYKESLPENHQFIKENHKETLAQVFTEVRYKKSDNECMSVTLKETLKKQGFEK

[6] = target: T5, Nitroreductase domain-containing protein (Phocaeicola dorei, UniProt B6W3P3); test: as §1; format: ADME; design: dose 2 uM; details: 2 µM
T5 sequence (B6W3P3 whole entry): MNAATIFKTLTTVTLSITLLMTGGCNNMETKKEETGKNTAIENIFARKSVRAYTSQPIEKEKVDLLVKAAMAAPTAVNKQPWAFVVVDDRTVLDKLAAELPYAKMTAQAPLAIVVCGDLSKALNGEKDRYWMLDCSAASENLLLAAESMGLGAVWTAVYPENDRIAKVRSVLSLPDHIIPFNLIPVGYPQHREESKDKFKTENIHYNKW

[7] = target: T6, Steroid 5-alpha reductase C-terminal domain-containing protein (Phocaeicola dorei, UniProt B6W0N3); test: as §1; format: ADME; design: dose 2 uM; details: 2 µM
T6 sequence (B6W0N3 whole entry): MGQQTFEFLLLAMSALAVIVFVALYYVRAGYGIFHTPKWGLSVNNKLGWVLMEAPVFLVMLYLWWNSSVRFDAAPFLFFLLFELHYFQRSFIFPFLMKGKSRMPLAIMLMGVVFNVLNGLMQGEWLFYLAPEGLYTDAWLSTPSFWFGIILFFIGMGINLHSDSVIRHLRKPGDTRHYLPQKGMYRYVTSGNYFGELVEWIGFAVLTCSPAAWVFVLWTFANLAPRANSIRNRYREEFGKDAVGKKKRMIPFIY

[8] = bacteroides thetaiotaomicron, 12 h, 2 µM
[9] = enterocloster bolteae, 12 h, 2 µM
Description: The drug is tested on Clostridium bolteae strain: ATCCBAA-613 for biotransformation. The drug concentrations were measured before and after a 12-h incubation by liquid-chromatography-coupled mass spectrometry (LC–MS)

[10] = victivallis vadensis, 12 h, 2 µM
Description: The drug is tested on Victivallis vadensis strain: ATCC BAA-548 for biotransformation. The drug concentrations were measured before and after a 12-h incubation by liquid-chromatography-coupled mass spectrometry (LC–MS)

[11] = akkermansia muciniphila, 12 h, 2 µM
Description: The drug is tested on Akkermansia muciniphila strain: ATCC BAA-835 for biotransformation. The drug concentrations were measured before and after a 12-h incubation by liquid-chromatography-coupled mass spectrometry (LC–MS)

## COc1ccc([C@@H]2Sc3ccccc3N(CCN(C)C)C(=O)[C@@H]2OC(C)=O)cc1 [DILTIAZEM]
[1]
  Bacterial Biotransformation: Compound metabolized
[2]
  Bacterial Biotransformation: Compound metabolized
[3]
  Bacterial Biotransformation: Compound NOT metabolized
Lipoprotein
  Bacterial Biotransformation: Compound NOT metabolized
[4]
  Bacterial Biotransformation: Compound NOT metabolized
Esterase
  Bacterial Biotransformation: Compound NOT metabolized
[5]
  Bacterial Biotransformation: Compound NOT metabolized
[6]
  Bacterial Biotransformation: Compound NOT metabolized
[7]
  Bacterial Biotransformation: Compound NOT metabolized
[8]
  Bacterial Biotransformation: Compound metabolized
[9]
  Bacterial Biotransformation: Compound NOT metabolized
[10]
  Bacterial Biotransformation: Compound metabolized
[11]
  Bacterial Biotransformation: Compound metabolized

## CC(=O)OCC(CCn1cnc2cnc(N)nc21)COC(C)=O [FAMCICLOVIR]
[1]
  Bacterial Biotransformation: Compound metabolized
[3]
  Bacterial Biotransformation: Compound NOT metabolized
Lipoprotein
  Bacterial Biotransformation: Compound NOT metabolized
[4]
  Bacterial Biotransformation: Compound NOT metabolized
Esterase
  Bacterial Biotransformation: Compound metabolized
[5]
  Bacterial Biotransformation: Compound NOT metabolized
[6]
  Bacterial Biotransformation: Compound NOT metabolized
[7]
  Bacterial Biotransformation: Compound NOT metabolized
[8]
  Bacterial Biotransformation: Compound metabolized
[9]
  Bacterial Biotransformation: Compound NOT metabolized
[10]
  Bacterial Biotransformation: Compound metabolized
[11]
  Bacterial Biotransformation: Compound NOT metabolized

## N#Cc1ccc2c(c1)N(CCCN1CCC(O)CC1)c1ccccc1S2 [PERICIAZINE]
[1]
  Bacterial Biotransformation: Compound NOT metabolized
[2]
  Bacterial Biotransformation: Compound NOT metabolized
[3]
  Bacterial Biotransformation: Compound NOT metabolized
Lipoprotein
  Bacterial Biotransformation: Compound NOT metabolized
[4]
  Bacterial Biotransformation: Compound metabolized
Esterase
  Bacterial Biotransformation: Compound NOT metabolized
[5]
  Bacterial Biotransformation: Compound NOT metabolized
[6]
  Bacterial Biotransformation: Compound NOT metabolized
[7]
  Bacterial Biotransformation: Compound NOT metabolized
[9]
  Bacterial Biotransformation: Compound NOT metabolized
[10]
  Bacterial Biotransformation: Compound NOT metabolized
[11]
  Bacterial Biotransformation: Compound NOT metabolized
